± gives the expanded uncertainty stated by the source.
Assay: xn = mol fraction of the nth substance listed
Settings: 101 kPa, Liquid

CC(O)CN (centres undefined) [1-amino-2-propanol] + O
Settings	mass density [kg/m3]	viscosity [mPa·s]
298.15 K, x1 = 0.05	999.9 ± 0.24	2.11 ± 0.079
298.15 K, x1 = 0.07	1000.35 ± 0.24	2.696 ± 0.1
298.15 K, x1 = 0.0986	1002.43 ± 0.25	3.902 ± 0.14
298.15 K, x1 = 0.1993	1004.57 ± 0.27	9.7 ± 0.32
298.15 K, x1 = 0.3003	999.91 ± 0.27	15.54 ± 0.49
298.15 K, x1 = 0.3955	992.94 ± 0.3	22.19 ± 0.68
298.15 K, x1 = 0.4929	985.82 ± 0.33	26.76 ± 0.82
298.15 K, x1 = 0.5995	978.02 ± 0.36	29.01 ± 0.89
298.15 K, x1 = 0.7002	971.66 ± 0.39	29.99 ± 0.92
298.15 K, x1 = 0.8006	965.96 ± 0.42	30.4 ± 0.93
298.15 K, x1 = 0.8992	961.08 ± 0.44	28.55 ± 0.88
298.15 K, x1 = 1	956.51 ± 0.47	26.68 ± 0.82
303.15 K, x1 = 0.05	997.07 ± 0.25	1.856 ± 0.07
303.15 K, x1 = 0.07	998.1 ± 0.25	2.282 ± 0.085
303.15 K, x1 = 0.0986	999.83 ± 0.25	3.248 ± 0.12
303.15 K, x1 = 0.1993	1001.03 ± 0.26	7.671 ± 0.26
303.15 K, x1 = 0.3003	996.08 ± 0.28	12.04 ± 0.38
303.15 K, x1 = 0.3955	989.08 ± 0.31	16.82 ± 0.53
303.15 K, x1 = 0.4929	981.92 ± 0.33	19.5 ± 0.6
303.15 K, x1 = 0.5995	974.2 ± 0.37	21.38 ± 0.66
303.15 K, x1 = 0.7002	967.74 ± 0.4	22.78 ± 0.7
303.15 K, x1 = 0.8006	962.01 ± 0.42	22.97 ± 0.71
303.15 K, x1 = 0.8992	957.12 ± 0.45	22.19 ± 0.69
303.15 K, x1 = 1	952.52 ± 0.48	20.31 ± 0.63
313.15 K, x1 = 0.05	992.68 ± 0.26	1.431 ± 0.055
313.15 K, x1 = 0.07	993.09 ± 0.26	1.785 ± 0.067
313.15 K, x1 = 0.0986	994.25 ± 0.26	2.359 ± 0.088
313.15 K, x1 = 0.1993	993.72 ± 0.27	5.102 ± 0.18
313.15 K, x1 = 0.3003	988.29 ± 0.3	7.551 ± 0.25
313.15 K, x1 = 0.3955	981.19 ± 0.32	9.95 ± 0.32
313.15 K, x1 = 0.4929	973.92 ± 0.35	11.79 ± 0.38
313.15 K, x1 = 0.5995	966.3 ± 0.38	12.85 ± 0.41
313.15 K, x1 = 0.7002	959.83 ± 0.41	13.14 ± 0.42
313.15 K, x1 = 0.8006	954.01 ± 0.44	13.56 ± 0.43
313.15 K, x1 = 0.8992	949.12 ± 0.47	12.83 ± 0.41
313.15 K, x1 = 1	944.42 ± 0.49	12.51 ± 0.4
323.15 K, x1 = 0.05	987.66 ± 0.27	1.136 ± 0.044
323.15 K, x1 = 0.07	987.41 ± 0.27	1.393 ± 0.053
323.15 K, x1 = 0.0986	988.2 ± 0.27	1.561 ± 0.059
323.15 K, x1 = 0.1993	986.18 ± 0.29	3.582 ± 0.13
323.15 K, x1 = 0.3003	980.32 ± 0.31	5.59 ± 0.2
323.15 K, x1 = 0.3955	973.13 ± 0.34	6.649 ± 0.23
323.15 K, x1 = 0.4929	965.84 ± 0.37	7.64 ± 0.26
323.15 K, x1 = 0.5995	958.38 ± 0.4	7.994 ± 0.27
323.15 K, x1 = 0.7002	951.77 ± 0.43	8.473 ± 0.28
323.15 K, x1 = 0.8006	945.87 ± 0.46	8.748 ± 0.29
323.15 K, x1 = 0.8992	940.96 ± 0.48	8.041 ± 0.27
323.15 K, x1 = 1	936.19 ± 0.51	7.543 ± 0.26
333.15 K, x1 = 0.05	982.03 ± 0.28	0.929 ± 0.037
333.15 K, x1 = 0.07	981.49 ± 0.28	1.118 ± 0.044
333.15 K, x1 = 0.0986	981.57 ± 0.29	1.222 ± 0.047
333.15 K, x1 = 0.1993	978.5 ± 0.3	2.627 ± 0.097
333.15 K, x1 = 0.3003	972.15 ± 0.33	3.944 ± 0.14
333.15 K, x1 = 0.3955	964.88 ± 0.36	4.988 ± 0.18
333.15 K, x1 = 0.4929	957.68 ± 0.39	5.701 ± 0.2
333.15 K, x1 = 0.5995	950.15 ± 0.42	6.163 ± 0.21
333.15 K, x1 = 0.7002	943.53 ± 0.45	5.753 ± 0.2
333.15 K, x1 = 0.8006	937.62 ± 0.47	6.023 ± 0.21
333.15 K, x1 = 0.8992	932.66 ± 0.5	5.483 ± 0.2
333.15 K, x1 = 1	927.84 ± 0.53	5.22 ± 0.19
343.15 K, x1 = 0.05	975.62 ± 0.3	0.775 ± 0.031
343.15 K, x1 = 0.07	974.99 ± 0.3	0.922 ± 0.037
343.15 K, x1 = 0.0986	973.44 ± 0.31	0.993 ± 0.039
343.15 K, x1 = 0.1993	970.55 ± 0.32	2.088 ± 0.078
343.15 K, x1 = 0.3003	963.77 ± 0.35	2.904 ± 0.11
343.15 K, x1 = 0.3955	956.45 ± 0.38	3.619 ± 0.13
343.15 K, x1 = 0.4929	949.25 ± 0.4	4.075 ± 0.15
343.15 K, x1 = 0.5995	941.71 ± 0.44	4.371 ± 0.16
343.15 K, x1 = 0.7002	935.09 ± 0.46	4.565 ± 0.17
343.15 K, x1 = 0.8006	929.19 ± 0.49	4.467 ± 0.16
343.15 K, x1 = 0.8992	924.2 ± 0.52	3.927 ± 0.14
343.15 K, x1 = 1	919.37 ± 0.54	3.77 ± 0.14
